US8722849B2, “Polypeptides” (Novo Nordisk A/S, priority 2011, dated 2014)
Values after ≈ are worked out from the molar mass of the structure shown. Read-outs that look alike come from different tables or passages of the source. Starred links: 1 amine or outer side, 2 acyl side, 3 side chain; linkers in the order of their positions; H or OH if unused. Positions of bridges follow the written chain, without caps; N, C: chain ends. Residues, ends and D or L forms follow the SMILES beside them. *: point of attachment. C20 diacid = O=C(O)CCCCCCCCCCCCCCCCCCC(=O)*; C18 diacid = O=C(O)CCCCCCCCCCCCCCCCC(=O)*; γGlu = O=C(O)[C@H](CCC(=O)[*:2])N[*:1]

Legend:
[1] = Assay (IV) determination of solubility; format: physicochemical
In short: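 Solubility was profiled across pH 3.0–8.0 after 18 hours at room temperature: a ~500 nmol/ml aqueous polypeptide solution was diluted 1:1 into 100 mM glycylglycine or bistrispropane buffers. After centrifugation, HPLC gave the dissolved concentration.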

[2] = biological target: T1, rat calcitonin (a) receptor (Rattus norvegicus, UniProt P32214); assay: Assay (II)b functional cAMP FlashPlate assay, rat calcitonin receptor; format: cell-based; settings: Table 11; read-out: CTa receptor rat EC50
T1 construct: expressed in transfected cells; host or cells: BHK tk'ts 13
T1 sequence (P32214 25-479 isoform P32214-2 limits assumed): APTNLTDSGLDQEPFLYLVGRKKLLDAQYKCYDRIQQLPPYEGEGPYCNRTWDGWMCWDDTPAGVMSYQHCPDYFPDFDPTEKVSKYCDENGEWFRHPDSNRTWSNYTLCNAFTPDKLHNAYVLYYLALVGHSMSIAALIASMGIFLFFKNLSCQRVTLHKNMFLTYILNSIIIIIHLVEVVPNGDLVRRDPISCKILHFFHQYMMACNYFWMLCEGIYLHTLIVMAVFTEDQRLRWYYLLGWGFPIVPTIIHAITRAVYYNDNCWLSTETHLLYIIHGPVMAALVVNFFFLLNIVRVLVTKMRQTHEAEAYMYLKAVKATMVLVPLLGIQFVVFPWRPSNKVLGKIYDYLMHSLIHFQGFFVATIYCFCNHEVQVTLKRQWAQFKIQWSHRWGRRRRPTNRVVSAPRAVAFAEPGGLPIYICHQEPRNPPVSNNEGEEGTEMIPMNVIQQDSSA
In short: (§1)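 cAMP accumulation in transiently transfected BHK tk'ts 13 cells, 100.000 cells/well, expressing rat calcitonin(a) receptor or its RAMP3 co-expression form (amylin 3(a)): 30 min stimulation with IBMX, 24 hours post-transfection. Readout by competition of cellular versus radiolabelled cAMP in FlashPlates, scintillation counted after 3 h.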

[3] = biological target: T2, human amylin receptor (amylin 3(a) receptor: human calcitonin receptor + RAMP-3) (Homo sapiens, UniProt O60896+P30988); assay: Assay (II)a functional CRE-luciferase assay, human amylin receptor; format: cell-based; settings: Table 2; BHK amylin 3(a)-receptor/CRE-luc cells
T2 construct: expressed in transfected cells; host or cells: BHK570
T2 sequence (P30988 25-474): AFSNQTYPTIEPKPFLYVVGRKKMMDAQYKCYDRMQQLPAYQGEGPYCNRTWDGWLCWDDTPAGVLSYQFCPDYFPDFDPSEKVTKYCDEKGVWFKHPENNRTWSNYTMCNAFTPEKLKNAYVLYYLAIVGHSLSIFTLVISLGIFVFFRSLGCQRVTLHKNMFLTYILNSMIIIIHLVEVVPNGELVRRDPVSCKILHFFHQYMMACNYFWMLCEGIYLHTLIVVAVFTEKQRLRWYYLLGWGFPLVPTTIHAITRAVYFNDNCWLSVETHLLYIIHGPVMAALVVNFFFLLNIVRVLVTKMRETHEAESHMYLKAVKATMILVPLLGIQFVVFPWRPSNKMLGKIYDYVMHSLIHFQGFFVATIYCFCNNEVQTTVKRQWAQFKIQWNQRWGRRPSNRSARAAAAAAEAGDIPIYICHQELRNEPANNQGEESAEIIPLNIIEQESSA
T2 sequence (O60896 24-148 partner): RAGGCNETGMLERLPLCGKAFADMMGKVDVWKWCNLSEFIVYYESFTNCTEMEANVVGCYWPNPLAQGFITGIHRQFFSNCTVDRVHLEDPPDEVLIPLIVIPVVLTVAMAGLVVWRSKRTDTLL

[4] = biological target: T3, rat amylin 3(a) receptor (rat calcitonin(a) receptor + rat RAMP3) (Rattus norvegicus, UniProt P32214+Q9JJ73); assay: Assay (II)b functional cAMP FlashPlate assay, rat amylin receptor; format: cell-based; settings: Table 11
T3 construct: expressed in transfected cells; host or cells: BHK tk'ts 13
T3 sequence (P32214 25-479 isoform P32214-2 limits assumed): T1 sequence (P32214 25-479 isoform P32214-2 limits assumed)
T3 sequence (Q9JJ73 23-147 partner): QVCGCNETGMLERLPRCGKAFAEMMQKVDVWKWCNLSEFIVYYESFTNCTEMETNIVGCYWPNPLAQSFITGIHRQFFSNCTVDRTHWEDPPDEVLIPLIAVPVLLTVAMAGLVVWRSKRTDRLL
In short: as §1

[5] = biological target: T4, human calcitonin receptor (Homo sapiens, UniProt P30988); assay: Assay (II)a functional CRE-luciferase assay, human calcitonin receptor; format: cell-based; settings: Table 7; human calcitonin (CTa) receptor
T4 construct: expressed in transfected cells; host or cells: BHK570
T4 sequence (P30988 25-474): T2 sequence (P30988 25-474)

[6] = bistrispropane buffer, pH 6, pH 6.0, read-out: Solubility pH 6.0
[7] = bistrispropane buffer, pH 6.5, pH 6.5, read-out: Solubility pH 6.5
[8] = bistrispropane buffer, pH 7, pH 7.0, read-out: Solubility pH 7.0
[9] = bistrispropane buffer, pH 7.5, pH 7.5, read-out: Solubility pH 7.5
[10] = bistrispropane buffer, pH 8, pH 8.0, read-out: Solubility pH 8.0
[11] = glycylglycine buffer, pH 3, pH 3.0, read-out: Solubility pH 3.0
[12] = glycylglycine buffer, pH 4, pH 4.0, 18 hours at room temperature, Table 2, read-out: Solubility pH 4.0
[13] = glycylglycine buffer, pH 4, pH 4.0, read-out: Solubility pH 4.0
[14] = glycylglycine buffer, pH 5, pH 5.0, read-out: Solubility pH 5.0

solubility at 18 h [1, 6] | solubility at 18 h [1, 7] | solubility at 18 h [1, 8] | solubility at 18 h [1, 9] | solubility at 18 h [1, 10] | solubility at 18 h [1, 11] | solubility at 18 h [1, 12] | solubility at 18 h [1, 13] | solubility at 18 h [1, 14] | EC50 [2] | EC50 [3] | EC50 [4] | EC50 [5] | solubility at 18 h ([1]; bistrispropane buffer, pH 7, pH 7.0, 18 hours at room temperature, Table 3, read-out: Solubility pH 7.0) | solubility at 18 h ([1]; bistrispropane buffer, pH 7, pH 7.0, Table 8, read-out: Solubility pH 7.0) | Compound
> 200 µM | > 200 µM | 81 µM (≈ 362 µg/mL) | 50 µM (≈ 224 µg/mL) | 48 µM (≈ 215 µg/mL) | > 200 µM | > 200 µM | > 200 µM | > 200 µM | 2360 pM | 67.5 pM | 38 pM | 334 pM | – | – | CC[C@H](C)[C@H](NC(=O)[C@@H]1CCCN1C(=O)CNC(=O)[C@H](Cc1ccccc1)NC(=O)[C@H](CC(N)=O)NC(=O)[C@H](CC(N)=O)NC(=O)[C@H](CO)NC(=O)[C@H](CO)NC(=O)[C@H](Cc1c[nH]cn1)NC(=O)[C@H](CCCNC(=N)N)NC(=O)[C@H](CC(C)C)NC(=O)[C@H](Cc1ccccc1)NC(=O)[C@H](CCC(=O)O)NC(=O)[C@H](C)NC(=O)[C@H](CC(C)C)NC(=O)[C@H](CCCNC(=N)N)NC(=O)[C@H](CCC(N)=O)NC(=O)[C@@H](NC(=O)[C@H](C)NC(=O)[C@@H]1CSSC[C@H](NC(=O)[C@H](CCCCN)NC(=O)CC[C@H](NC(=O)CCCCCCCCCCCCCCCCC(=O)O)C(=O)O)C(=O)N[C@@H](CC(N)=O)C(=O)N[C@@H]([C@@H](C)O)C(=O)N[C@@H](C)C(=O)N[C@@H]([C@@H](C)O)C(=O)N1)[C@@H](C)O)C(=O)N[C@@H](CC(C)C)C(=O)N1CCC[C@H]1C(=O)N1CCC[C@H]1C(=O)N[C@H](C(=O)N[C@@H](CC(N)=O)C(=O)N[C@H](C(=O)NCC(=O)N[C@@H](CO)C(=O)N[C@@H](Cc1c[nH]cn1)C(=O)N[C@H](C(=O)N[C@@H](Cc1ccc(O)cc1)C(N)=O)[C@@H](C)O)C(C)C)[C@@H](C)O [Example 61, N-alpha-[(S)-4-Carboxy-4-(17-carboxyheptadecanoylamino)butyryl]-[Glu14,Arg17,His35]-pramlintide] ({C18 diacid-γGlu}-KCNTATCATQRLAEFLRHSSNNFGPILPPTNVGSHTY-NH2; disulfide 2-7 (inferred))
> 200 µM | > 200 µM | 176 µM (≈ 781 µg/mL) | 96 µM (≈ 426 µg/mL) | 89 µM (≈ 395 µg/mL) | > 200 µM | > 200 µM | > 200 µM | > 200 µM | 5350 pM | 217 pM | 1330 pM | 342 pM | 176 µM (≈ 781 µg/mL) | 176 µM (≈ 781 µg/mL) | CC(C)C[C@H](NC(=O)[C@H](CCCNC(=N)N)NC(=O)[C@H](CCC(N)=O)NC(=O)[C@@H](NC(=O)[C@H](C)NC(=O)[C@@H]1CSSC[C@H](NC(=O)[C@H](CCCCN)NC(=O)CC[C@H](NC(=O)CCCCCCCCCCCCCCCCCCC(=O)O)C(=O)O)C(=O)N[C@@H](CC(N)=O)C(=O)N[C@@H]([C@@H](C)O)C(=O)N[C@@H](C)C(=O)N[C@@H]([C@@H](C)O)C(=O)N1)[C@@H](C)O)C(=O)N[C@@H](C)C(=O)N[C@@H](CCC(=O)O)C(=O)N[C@@H](Cc1ccccc1)C(=O)N[C@@H](CC(C)C)C(=O)N[C@@H](CCCNC(=N)N)C(=O)N[C@@H](Cc1c[nH]cn1)C(=O)N[C@@H](CO)C(=O)N[C@@H](CO)C(=O)N[C@@H](CC(N)=O)C(=O)N[C@@H](CC(N)=O)C(=O)N[C@@H](Cc1ccccc1)C(=O)NCC(=O)N[C@@H](C)C(=O)N1CCC[C@H]1C(=O)N[C@@H](CC(C)C)C(=O)N[C@@H](CO)C(=O)N[C@@H](CO)C(=O)N[C@H](C(=O)N[C@@H](CC(N)=O)C(=O)N[C@H](C(=O)NCC(=O)N[C@@H](CO)C(=O)N[C@@H](Cc1c[nH]cn1)C(=O)N[C@H](C(=O)N[C@@H](Cc1ccc(O)cc1)C(N)=O)[C@@H](C)O)C(C)C)[C@@H](C)O [Example 65, N-alpha-[(S)-4-Carboxy-4-(19-carboxynonadecanoylamino)butyryl]-[Glu14,Arg17,Ala25,Pro26,Ser28,Ser29,His35]-pramlintide] ({C20 diacid-γGlu}-KCNTATCATQRLAEFLRHSSNNFGAPLSSTNVGSHTY-NH2; disulfide 2-7 (inferred); C-terminus assumed)
